Laboratory results reported in PMC9415638, “Discovery of novel thiazolyl-pyrazolines as dual EGFR and VEGFR-2 inhibitors endowed with in vitro antitumor activity towards non-small lung cancer” (Journal of Enzyme Inhibition and Medicinal Chemistry, 2022).

What was measured:
H441 lung cancer cells = test: Anti-proliferative MTT assay; details: Homo sapiens, NCI-H441, 24 h; for inhibition at 10 µM: read-out: % Growth inhibition ± SEM H441; for IC50: read-out: IC50 (µM) ± SEM H441, MTT, 24 h, n = 3
K562 leukaemia cells = test: Anti-proliferative MTT assay; type: cell-based; details: Homo sapiens, 24 h, read-out: % Growth inhibition ± SEM K562
Protocol: (§1) To evaluate the anti-proliferative activity of the synthesised thiazolyl-pyrazoline derivatives (7a–7d, 10a–10d, and 13a–13f), a preliminary in vitro one dose (10 µM) anticancer assay was performed. Nine cell lines derived from five tumour subpanels were examined; leukaemia (K562 and KG-1a), breast (MCF-7, BT-549 and HCC70), lung (A549 and H441), colon (HCT116) and liver (HepG2) cancer cell lines. The compounds were added at a single concentration (10 µM) and the cultures were incubated for 24 h, then the per cent growth inhibition (%GI) was calculated.
(§2) Human leukaemia (K562 and KG-1a), breast (MCF-7, BT-549 and HCC70), lung (A549, H441, NCI-H1650 and NCI-H1975), colon (HCT116), liver (HepG2) cancer cell lines and WI-38 human lung fibroblast cell line were obtained from the American Type Culture Collection (ATCC; Manassas, VA) and were cultured in their suitable media containing 10% foetal bovine serum (FBS; Sigma-Aldrich) in a humidified atmosphere with 5% CO2 at 37 °C. Gefitinib and vandetanib were purchased from Sigma-Aldrich. All chemicals used in this study were analytical or cell-culture grade.
(§3) Cytotoxicity was measured using the MTT assay. Human leukaemia (K562 and KG-1a), breast (MCF-7, BT-549 and HCC70), lung (A549, H441, NCI-H1650 and NCI-H1975), colon (HCT116), liver (HepG2) cancer cell lines and WI-38 human lung fibroblast cell line were plated at a density of 1 × 10^4 cells per well in 96-well plates overnight and then treated with the compounds. After 24 h treatment, 20 μL of MTT solution (2 mg/mL in phosphate-buffered saline [PBS]) was added to each well and the cells were cultured for another 4 h at 37 °C. The medium was aspirated and 150 μL DMSO was added to solubilise MTT formazan crystals. The plates were then shaken, and the optical density was determined at 570 nm using an ELISA plate reader (Model 550, Bio-Rad, Hercules, CA). At least three independent experiments were performed. The IC50 values were calculated using GraphPad Prism 5 (Version 5.01, GraphPad Software, San Diego, CA).

HepG2 liver cancer cells = test: Anti-proliferative MTT assay; type: cell-based; details: Homo sapiens, 24 h, read-out: % Growth inhibition ± SEM HepG2
Protocol: as §1, §2, §3

[1] = test system: HCC70 breast cancer cells; test: Anti-proliferative MTT assay; type: cell-based; details: Homo sapiens, 24 h, read-out: % Growth inhibition ± SEM HCC70
Protocol: as §1, §2, §3

[2] = test system: MCF-7 breast cancer cells; test: Anti-proliferative MTT assay; type: cell-based; details: Homo sapiens, MCF7, 24 h, read-out: % Growth inhibition ± SEM MCF-7
Protocol: as §1, §2, §3

[3] = test system: HCT116 colon cancer cells; test: Anti-proliferative MTT assay; type: cell-based; details: Homo sapiens, HCT-116, 24 h, read-out: % Growth inhibition ± SEM HCT116
Protocol: as §1, §2, §3

[4] = test system: BT-549 breast cancer cells; test: Anti-proliferative MTT assay; type: cell-based; details: Homo sapiens, 24 h, read-out: % Growth inhibition ± SEM BT-549
Protocol: as §1, §2, §3

KG-1a leukaemia cells = test: Anti-proliferative MTT assay; type: cell-based; details: Homo sapiens, 24 h, read-out: % Growth inhibition ± SEM KG-1a
Protocol: as §1, §2, §3

EGFR = EGFR (Homo sapiens, UniProt P00533); test: EGFR kinase assay (PGT-coated 96-well plates); type: biochemical; details: read-out: IC50 (nM) ± SEM EGFR
Sequence of EGFR (P00533 25-1210): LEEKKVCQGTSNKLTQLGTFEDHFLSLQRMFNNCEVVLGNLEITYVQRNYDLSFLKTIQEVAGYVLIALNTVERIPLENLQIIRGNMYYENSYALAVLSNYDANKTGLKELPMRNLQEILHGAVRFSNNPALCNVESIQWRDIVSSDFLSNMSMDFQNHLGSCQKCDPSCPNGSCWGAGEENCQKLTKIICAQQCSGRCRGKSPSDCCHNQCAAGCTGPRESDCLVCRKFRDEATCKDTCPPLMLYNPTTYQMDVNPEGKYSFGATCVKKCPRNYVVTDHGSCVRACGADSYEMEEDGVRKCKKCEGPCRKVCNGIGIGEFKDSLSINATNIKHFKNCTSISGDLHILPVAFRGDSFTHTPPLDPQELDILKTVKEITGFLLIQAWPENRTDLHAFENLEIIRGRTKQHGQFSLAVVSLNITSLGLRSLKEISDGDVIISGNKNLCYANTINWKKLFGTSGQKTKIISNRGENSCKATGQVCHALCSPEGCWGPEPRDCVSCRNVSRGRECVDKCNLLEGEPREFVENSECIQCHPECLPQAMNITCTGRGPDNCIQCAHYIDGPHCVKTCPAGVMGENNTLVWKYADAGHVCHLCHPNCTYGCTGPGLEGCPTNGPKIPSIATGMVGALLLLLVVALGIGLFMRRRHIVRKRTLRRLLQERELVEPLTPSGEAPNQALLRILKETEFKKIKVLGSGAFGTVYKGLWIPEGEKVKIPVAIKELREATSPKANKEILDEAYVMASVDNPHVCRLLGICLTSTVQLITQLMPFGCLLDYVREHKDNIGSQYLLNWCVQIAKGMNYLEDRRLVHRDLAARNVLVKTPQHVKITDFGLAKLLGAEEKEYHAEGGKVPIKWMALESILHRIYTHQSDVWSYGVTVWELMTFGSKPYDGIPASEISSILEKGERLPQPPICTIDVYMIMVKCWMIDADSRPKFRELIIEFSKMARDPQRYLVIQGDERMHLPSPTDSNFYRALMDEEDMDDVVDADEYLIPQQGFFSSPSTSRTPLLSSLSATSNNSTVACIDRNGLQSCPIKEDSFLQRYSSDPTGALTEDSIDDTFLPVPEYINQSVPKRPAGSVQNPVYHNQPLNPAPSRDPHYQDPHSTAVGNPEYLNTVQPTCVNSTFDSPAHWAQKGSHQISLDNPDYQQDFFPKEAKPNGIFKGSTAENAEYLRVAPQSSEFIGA
Protocol: (§4) The EGFR kinase assay was carried out in 96-well plates coated with PGT (poly l-glutamic acid l-tyrosine, 4:1, Sigma Aldrich, St. Louis, MO) as previously described. IC50 values were calculated using GraphPad Prism 5. Each experiment was carried out at least three times. The VEGFR-2 kinase assay was carried out in 96-well streptavidin coated plate using recombinant human VEGFR-2/KDR ELISA kit according to manufacturer’s instructions.

A549 lung cancer cells = test: Anti-proliferative MTT assay; details: Homo sapiens, A549, 24 h; for inhibition at 10 µM: read-out: % Growth inhibition ± SEM A549; for IC50: read-out: IC50 (µM) ± SEM A549
[5] = biological target: T1, recombinant human VEGFR-2/KDR (Homo sapiens, UniProt P35968); test: VEGFR-2 kinase assay (VEGFR-2/KDR ELISA kit); type: biochemical; details: read-out: IC50 (nM) ± SEM VEGFR-2
T1 construct: purchased
T1 sequence (P35968 20-1356): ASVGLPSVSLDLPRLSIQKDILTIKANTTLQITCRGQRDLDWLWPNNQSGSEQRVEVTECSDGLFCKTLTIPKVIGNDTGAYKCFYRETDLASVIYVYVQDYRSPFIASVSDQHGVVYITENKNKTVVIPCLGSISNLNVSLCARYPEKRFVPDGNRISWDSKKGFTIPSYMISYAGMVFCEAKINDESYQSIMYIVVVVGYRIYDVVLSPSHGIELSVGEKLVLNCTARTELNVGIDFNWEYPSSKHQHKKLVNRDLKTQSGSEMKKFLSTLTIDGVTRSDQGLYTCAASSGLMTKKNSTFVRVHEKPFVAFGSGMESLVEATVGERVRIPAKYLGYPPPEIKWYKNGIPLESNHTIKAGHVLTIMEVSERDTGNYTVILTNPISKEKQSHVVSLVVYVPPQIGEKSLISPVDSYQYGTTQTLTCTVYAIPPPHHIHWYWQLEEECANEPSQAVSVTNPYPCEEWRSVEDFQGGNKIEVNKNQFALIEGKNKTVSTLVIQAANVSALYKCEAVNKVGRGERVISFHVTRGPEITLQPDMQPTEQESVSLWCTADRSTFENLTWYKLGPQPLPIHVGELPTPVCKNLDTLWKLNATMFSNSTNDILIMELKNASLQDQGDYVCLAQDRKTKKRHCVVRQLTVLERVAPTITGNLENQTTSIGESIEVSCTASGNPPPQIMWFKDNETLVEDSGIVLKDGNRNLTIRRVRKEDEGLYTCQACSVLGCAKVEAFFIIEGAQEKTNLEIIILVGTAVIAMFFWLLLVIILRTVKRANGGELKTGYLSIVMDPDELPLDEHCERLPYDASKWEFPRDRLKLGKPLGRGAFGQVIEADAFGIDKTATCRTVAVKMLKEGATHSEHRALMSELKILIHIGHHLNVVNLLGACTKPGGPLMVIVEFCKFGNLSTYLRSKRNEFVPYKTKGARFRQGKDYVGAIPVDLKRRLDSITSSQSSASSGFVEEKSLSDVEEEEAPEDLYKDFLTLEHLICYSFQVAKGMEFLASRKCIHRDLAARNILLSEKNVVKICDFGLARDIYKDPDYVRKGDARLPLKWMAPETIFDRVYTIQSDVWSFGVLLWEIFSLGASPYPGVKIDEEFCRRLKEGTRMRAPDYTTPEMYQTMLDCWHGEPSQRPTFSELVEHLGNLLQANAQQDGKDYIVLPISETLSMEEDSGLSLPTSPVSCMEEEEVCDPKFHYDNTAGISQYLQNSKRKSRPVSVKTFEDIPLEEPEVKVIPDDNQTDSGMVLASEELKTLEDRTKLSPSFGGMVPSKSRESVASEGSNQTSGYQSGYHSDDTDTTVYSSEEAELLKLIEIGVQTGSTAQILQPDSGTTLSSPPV
Protocol: as §4

[6] = test system: WI-38 human lung fibroblast cells; test: MTT cytotoxicity assay on normal cells; type: cell-based; details: Homo sapiens, WI-38; normal lung fibroblasts, MTT, 24 h, n = 3; read-out: IC50 (µM) ± SEM WI-38
Protocol: All chemicals used in this study were analytical or cell-culture grade.
Cytotoxicity was measured using the MTT assay. […] The medium was aspirated and 150 μL DMSO was added to solubilise MTT formazan crystals. The plates were then shaken, and the optical density was determined at 570 nm using an ELISA plate reader (Model 550, Bio-Rad, Hercules, CA). At least three independent experiments were performed.

VEGFR-2 = test system: VEGFR-2; set-up: method as in PMID 30641320; details: Figure 2; cited from earlier work
A549 cells = test: Cell cycle analysis by flow cytometry (7AAD); type: cell-based, human; details: A549, 20 µM, 24 h
Protocol: Figure 6. […] (A) Representative cell cycle distribution data are shown by flow cytometric analysis upon incubation with 0 (control), 2.5 or 5 μM of 10b or 10d or with 0 (control), 5 or 20 μM of gefitinib for 24 h. (B) Quantification of cell cycle distribution upon 24 h incubation with 10b or 10d.
DNA content was measured using 7-aminoactinmycin D (7AAD) (Biotium, Inc., Hayward, CA) staining and is commonly used for cell cycle phase analysis as previously described. Apoptosis was evaluated using the annexin V/propidium iodide (PI) staining kit (BioLegend, San Diego, CA) according to the manufacturer’s instructions and as previously described.

Structure (SMILES)	melting point	IC50 (H441 lung cancer cells)	IC50 (EGFR)	IC50 (A549 lung cancer cells)	IC50 [5]	inhibition at 10 µM (H441 lung cancer cells)	inhibition at 10 µM (K562 leukaemia cells)	inhibition at 10 µM (HepG2 liver cancer cells)	inhibition at 10 µM [1]	inhibition at 10 µM [2]	inhibition at 10 µM [3]	inhibition at 10 µM [4]	inhibition at 10 µM (KG-1a leukaemia cells)	inhibition at 10 µM (A549 lung cancer cells)	IC50 [6]	IC50 (VEGFR-2)	cell cycle arrest phase (A549 cells)
CN(C)c1ccc(C2CC(c3c(O)c4ccccc4oc3=O)=NN2c2nc(-c3ccccc3)c(/N=N/c3ccc(Cl)cc3)s2)cc1 (centres unmarked) [Compound IV]	–	–	–	–	–	–	–	–	–	–	–	–	–	–	–	0.034 µM	–
COc1cc2ncnc(Nc3ccc(F)c(Cl)c3)c2cc1OCCCN1CCOCC1 [Gefitinib, reference compound]	–	–	–	–	–	–	–	–	–	–	–	–	–	–	–	–	significantly arrested the cell cycle at G1 phase

Further lines, with some results ahead:

melting point	IC50 (H441 lung cancer cells)	IC50 (EGFR)	IC50 (A549 lung cancer cells)	IC50 [5]	Structure (SMILES)	inhibition at 10 µM (H441 lung cancer cells)	inhibition at 10 µM (K562 leukaemia cells)	inhibition at 10 µM (HepG2 liver cancer cells)	inhibition at 10 µM [1]	inhibition at 10 µM [2]	inhibition at 10 µM [3]	inhibition at 10 µM [4]	inhibition at 10 µM (KG-1a leukaemia cells)	inhibition at 10 µM (A549 lung cancer cells)	IC50 [6]	IC50 (VEGFR-2)	cell cycle arrest phase (A549 cells)
170 to 171 °C	33.5 ± 3.9 µM	134 ± 1.5 nM	46.3 ± 2.5 µM	173 ± 2.6 nM	COc1ccc(C2CC(c3ccc(Cl)cc3Cl)=NN2c2nc(C)c(N=Nc3ccc(Cl)cc3)s2)cc1 (centres unmarked) [Compound 13c, 5-((4-Chlorophenyl)diazenyl)-2-(3-(2,4-dichlorophenyl)-5-(4-methoxyphenyl)-4,5-dihydro-1H-pyrazol-1-yl)-4-methylthiazole]	19.9 ± 1.7%	5.2 ± 0.9%	14.2 ± 1%	1.1 ± 0.1%	10.4 ± 2.9%	8.7 ± 0.6%	8.7 ± 1.9%	12.4 ± 1.6%	14.8 ± 1%	91.4 ± 8.9 µM	–	–
187 to 188 °C	21.7 ± 1.3 µM	93.6 ± 3 nM	57.1 ± 4.1 µM	336 ± 6.3 nM	COc1ccc(C2CC(c3ccc(Cl)cc3Cl)=NN2c2nc(C)c(N=Nc3ccccc3)s2)cc1OC (centres unmarked) [Compound 13d, 2-(3-(2,4-Dichlorophenyl)-5-(3,4-dimethoxyphenyl)-4,5-dihydro-1H-pyrazol-1-yl)-4-methyl-5-(phenyldiazenyl)thiazole]	38.9 ± 2.4%	18.2 ± 1.8%	18.6 ± 2.5%	22.3 ± 1.3%	11.9 ± 1.8%	10.1 ± 3.5%	14.2 ± 2.2%	24.1 ± 2.7%	12.6 ± 2.7%	64.2 ± 2.8 µM	–	–
176 to 177 °C	15.2 ± 3.6 µM	67.7 ± 2 nM	19.1 ± 1.3 µM	216 ± 4.3 nM	COc1ccc(C2CC(c3ccc(Cl)cc3Cl)=NN2c2nc(C)c(N=Nc3ccc(C)cc3)s2)cc1OC (centres unmarked) [Compound 13e, 2-(3-(2,4-Dichlorophenyl)-5-(3,4-dimethoxyphenyl)-4,5-dihydro-1H-pyrazol-1-yl)-4-methyl-5-(p-tolyldiazenyl)thiazole]	46.9 ± 3.9%	24 ± 2%	0.3%	16.1 ± 0.9%	1.8 ± 0.6%	9.9 ± 0.8%	12.5 ± 1.5%	15.2 ± 1.8%	30.3 ± 2.4%	87 ± 4.2 µM	–	–
190 to 191 °C	24.8 ± 1.4 µM	107 ± 1.2 nM	13.7 ± 2.2 µM	113 ± 1.8 nM	COc1ccc(C2CC(c3ccc(Cl)cc3Cl)=NN2c2nc(C)c(N=Nc3ccc(Cl)cc3)s2)cc1OC (centres unmarked) [Compound 13f, 5-((4-Chlorophenyl)diazenyl)-2-(3-(2,4-dichlorophenyl)-5-(3,4-dimethoxyphenyl)-4,5-dihydro-1H-pyrazol-1-yl)-4-methylthiazole]	17.3 ± 0.6%	31.5 ± 1%	0.9 ± 0.3%	6.3 ± 1%	0.8 ± 0.2%	0.2%	24.6 ± 1.3%	20 ± 2.8%	47.5 ± 3.1%	> 100 µM	–	–
